Source: paper PMC6627486, “Ipomoeassin F Binds Sec61α to Inhibit Protein Translocation” (Journal of the American Chemical Society, 2019)
Like-named read-outs stand apart in the source and are kept apart here.

What was measured:
Assay type in all cases: cell-based, human
[1] = tested on: HEK S82P; test: Alamar Blue viability, HEK293 expressing Sec61α S82P; conditions: read-out: cell viability IC50
Protocol: (§1) AlamarBlue Cytotoxicity Assay […]
(§2) Compounds were diluted from a DMSO stock into culture medium as described above. Cells were treated for 96 h, then viability measured with AlamarBlue, detected using the conditions described but with a BMG Fluostar Optima Microplate Reader. The percentage of viability compared to the negative control (DMSO-treated cells) was determined. GraphPad Prism 6 software was used to make a plot of % viability versus sample […]
(§3) HCT116 and HEK293T. Viable cells were counted using an automated cell counter (BioRad TC20) before each experiment. Experiments were performed either in quadruplicate or duplicate sets. First 100µ l of HCT116 or HEK293T cells at a density of 25,000 cells/m l was seeded in black wall, clear bottom, 96-well plates (2500 cells/well) (Viewplate-96 Perkin Elmer). HEK293 FRT Trex cells were seeded in complete medium supplemented to 1 μg/ml Doxycycline to induce expression of Sec61a constructs. Cells were then incubated at 37 °C and 5% CO2 for 24 h. The compounds were dissolved in DMSO to make drug stocks (10 mM). […] Emission of each well at 620 nm was detected by a microplate reader (Perkin Elmer EnSpire) at excitation 580 nm. The percentage of viability compared to the negative control (DMSO -treated cells) was determined. […]

[2] = tested on: IL-2 production by Jurkat T cells; test: Activation-induced IL-2 production by Jurkat T cells; conditions: 1 h preincubation then 24 h activation
Protocol: Jurkat E6.1 (ATCC TIB-152TM) T cells were cultured in RPMI GlutamaxTM (Life Technologies),
supplemented with 10% heat-inactivated fetal calf serum (FCS) (Invitrogen) and penicillin/streptomycin
(100 U/ml, 100 µg/ml). […]
(§4) FlowJo X software. […]

[3] = tested on: WT HCT116; test: Alamar Blue viability, parental HCT116 (96 h); conditions: read-out: cell viability IC50
Protocol: (§5) AlamarBlue Cytotoxicity Assay
(§6) MDA-MB-231, MCF-10A and HCT116. Viable cells were counted with a hemocytometer immediately before each experiment . Experiments were done in triplicate. First, 100 μL of MDA-MB-231 cells or MCF-10A cells at the density of 50,000 cells/mL was seeded in a 96-well plate (5,000 cells/well) and then incubated at 37 °C and 5% CO2 for 24 h. The compounds were dissolved in DMSO (dimethyl sulfoxide) to make drug stocks (10 mM). The stock solutions were diluted with the complete DMEM high glucose culture medium to make a series of gradient fresh working solutions right before each test. Subsequently, the cells were treated with 100 μL of the freshly made gradient working solution in a total volume of 200 μL/well for 72 h. After that, the media were discarded and 200 μL of the fresh complete medium containing 10% of AlamarBlue (resazurin) stock solution was added to each well. The plate was then incubated at 37 °C and 5% CO2 for another 3 h. Emission of each well at 620 nm was detected by a microplate reader (BioTek Synergy H1) at excitation 580 nm. For HCT116 WT and mutant lines, cells were seeded at 1000 cells/ well in complete McCoys medium. […] Cells were treated for 96 h, then viability measured with AlamarBlue, detected using the conditions described but with a BMG Fluostar Optima Microplate Reader. […]
(§7) was determined. […]

[4] = tested on: CD62L expression in Jurkat T cells; test: CD62L expression by Jurkat T cells; conditions: 24 h treatment
Protocol: Jurkat E6.1 (ATCC TIB-152TM) T cells were cultured in RPMI GlutamaxTM (Life Technologies), supplemented with 10% heat-inactivated fetal calf serum (FCS) (Invitrogen) and penicillin/streptomycin (100 U/ml, 100 µg/ml). Cells were treated with Ipomoeassin F or mycolactone for 24 h, then pelleted and stained with FITC-conjugated anti-human CD62L (clone DREG-56 (BioLegend #304804) at 500 ng/ml) during 40 min at 4°C. Fluorescence signals were acquired on an Accuri CD (BD) and analyzed with the […]
as §4

[5] = tested on: HEK T86M; test: Alamar Blue viability, HEK293 expressing Sec61α T86M; conditions: read-out: cell viability IC50
Protocol: as §1
HCT116 and HEK293T. Viable cells were counted using an automated cell counter (BioRad TC20) before each experiment. Experiments were performed either in quadruplicate or duplicate sets. First 100µ l of HCT116 or HEK293T cells at a density of 25,000 cells/m l was seeded in black wall, clear bottom, 96-well plates (2500 cells/well) (Viewplate-96 Perkin Elmer). HEK293 FRT Trex cells were seeded in complete medium supplemented to 1 μg/ml Doxycycline to induce expression of Sec61a constructs. Cells were then incubated at 37 °C and 5% CO2 for 24 h. The compounds were dissolved in DMSO to make drug stocks (10 mM). The stock solutions were diluted with the complete DMEM or McCoy’s 5A culture media supplemented with DMSO to make a series of gradient fresh working solutions at equal DMSO percentage immediately prior to each test. Subsequently, the cells were treated with 25 μl of the freshly made gradient in a total volume of 125 μl/well for 72 h. After that, the media were supplemented with 10% of AlamarBlue (resazurin) stock solution. The plate was then incubated at 37 °C and 5% CO2 for another 4 h. Emission of each well at 620 nm was detected by a microplate reader (Perkin Elmer EnSpire) at excitation 580 nm. The percentage of viability compared to the negative control (DMSO -treated cells) was determined. […]

[6] = tested on: HCT R66K; test: Alamar Blue viability, HCT116 Sec61α R66K (96 h)
Protocol: as §5, §6, §7

[7] = tested on: HEK R66I; test: Alamar Blue viability, HEK293 expressing Sec61α R66I; conditions: read-out: cell viability IC50
Protocol: as §1, §2, §3

SMILES | IC50 ([1]; 72 h) [nM] | IC50 [2] [nM] | IC50 ([3]; WT HCT116, 96 h) [nM] | IC50 [4] [nM] | IC50 ([5]; 72 h) [nM] | IC50 ([6]; read-out: cell viability IC50) [nM] | IC50 ([7]; 72 h) [nM] | IC50 ([1]; Homo sapiens, HEK293, 72 h) [nM] | IC50 ([2]; Homo sapiens) [nM] | IC50 ([3]; Homo sapiens, HCT-116, WT HCT116, 96 h) [nM] | IC50 ([4]; Homo sapiens) [nM] | IC50 ([5]; Homo sapiens, HEK293, 72 h) [nM] | IC50 ([6]; Homo sapiens, HCT-116, read-out: cell viability IC50) [nM] | IC50 ([7]; Homo sapiens, HEK293, 72 h) [nM]
CC(=C\C=C\C(C)=C\[C@H](O)[C@@H](O)C[C@H](C)O)/C=C(C)/C=C/C(=O)O[C@H]1CCCC(=O)O[C@@H]([C@@H](C)C/C(C)=C/[C@@H](C)[C@H](O)C[C@@H](C)O)C/C=C(\C)C[C@@H]1C [mycolactone, reference compound] | 1160 | 6 | 1.9 ± 0.6 | 6.3 | 2470 | > 330 | 4620 | – | – | – | – | – | – | –
C/C=C(\C)C(=O)O[C@@H]1[C@@H](O)[C@@H]2O[C@H]3[C@H](O[C@@H](CCCCC)CCCCCCC(=O)CCC(=O)OC[C@@H](O2)[C@H]1OC(=O)/C=C/c1ccccc1)O[C@H](C)[C@H](OC(C)=O)[C@@H]3O [ipomoeassin F] | – | – | – | – | – | – | – | > 10000 | 9.9 | 40 ± 4 | 6.3 | 13.5 ± 0.6 | 131 ± 15 | > 10000
